Results published in patent publication US9686988B2, “Pesticidal compounds based on arylthiosulfonamide derivatives” (Syngenta Participations AG, priority 2012, dated 2017).

What was measured:
Assay type in all cases: in vivo
Spodoptera littoralis = Spodoptera littoralis (Egyptian cotton leaf worm), cotton leaf disc spray test; settings: foliar, 72 h, application rate of 200 ppm, mortality, anti-feedant effect, growth inhibition 3 days after infestation, L1 larvae
Experimental: Spodoptera littoralis (Egyptian Cotton Leaf Worm)
Cotton leaf discs were placed on agar in 24-well microtiter plates and sprayed with aqueous test solutions prepared from 10′000 ppm DMSO stock solutions. After drying the leaf discs were infested with five L1 larvae. The samples were assessed for mortality, anti-feedant effect, and growth inhibition 3 days after infestation. Control of Spodoptera littoralis by a test sample is noted when at least one of mortality, anti-feedant effect, and growth inhibition is better than the untreated sample.

Heliothis virescens = Heliothis virescens (tobacco budworm), eggs on artificial diet; settings: 120 h, application rate of 200 ppm, egg mortality, larval mortality, growth inhibition 5 days after infestation
Experimental: Heliothis virescens (Tobacco Budworm):
Eggs (0-24 h old) were placed in 24-well microtiter plates on artificial diet and treated with aqueous test solutions prepared from 10′000 ppm DMSO stock solutions by pipetting. The samples were assessed for egg mortality, larval mortality and growth inhibition 5 days after infestation. Control of Heliothis virescens by a test sample is noted when at least one of egg mortality, larval mortality and growth inhibition is better than the untreated sample.

Plutella xylostella = Plutella xylostella (diamond back moth), L2 larvae on artificial diet; settings: 120 h, application rate of 200 ppm, mortality and growth inhibition 5 days after infestation
Experimental: Plutella xylostella (Diamond Back Moth):
24-well microtiter plates with artificial diet were treated with aqueous test solutions prepared from 10′000 ppm DMSO stock solutions by pipetting. After drying, the plates were infested with L2 larvae (10 to 15 per well). The samples were assessed for mortality and growth inhibition 5 days after infestation. Control of Plutella xyllostella by a test sample is noted when at least one of mortality and growth inhibition is better than the untreated sample.

Diabrotica balteata [1] = experiment: Diabrotica balteata (corn rootworm), L2 larvae on artificial diet; settings: 120 h, application rate of 200 ppm, mortality and growth inhibition 5 days after infestation
Experimental: Diabrotica balteata (Corn Rootworm):
24-well microtiter plates with artificial diet were treated with aqueous test solutions prepared from 10′000 ppm DMSO stock solutions by pipetting. After drying, the plates were infested with L2 larvae (6 to 10 per well). The samples were assessed for mortality and growth inhibition 5 days after infestation. Control of Diabrotica balteata by a test sample is noted when at least one of mortality and growth inhibition is better than the untreated sample.

Tetranychus urticae = Tetranychus urticae (two-spotted spider mite), bean leaf disc spray test; settings: foliar, 192 h, application rate of 200 ppm, mortality (mobile stages) 8 days after infestation, mixed ages
Experimental: Tetranychus urticae (Two-Spotted Spider Mite):
Bean leaf discs on agar in 24-well microtiter plates were sprayed with aqueous test solutions prepared from 10′000 ppm DMSO stock solutions. After drying the leaf discs were infested with a mite population of mixed ages. The samples were assessed for mortality (mobile stages) 8 days after infestation.

Thrips tabaci = Thrips tabaci (onion thrips), sunflower leaf disc spray test; settings: foliar, 144 h, application rate of 200 ppm, mortality 6 days after infestation, mixed ages
Experimental: Thrips tabaci (Onion Thrips):
Sunflower leaf discs were placed on agar in 24-well microtiter plates and sprayed with aqueous test solutions prepared from 10′000 ppm DMSO stock solutions. After drying the leaf discs were infested with a thrips population of mixed ages. The samples were assessed for mortality 6 days after infestation.

Myzus persicae = Myzus persicae (green peach aphid), sunflower leaf disc spray test; settings: foliar, 144 h, read-out: mortality of Myzus persicae
Experimental: Myzus persicae (Green Peach Aphid):
Sunflower leaf discs were placed on agar in a 24-well microtiter plate and sprayed with aqueous test solutions prepared from 10′000 ppm DMSO stock solutions. After drying, the leaf discs were infested with an aphid population of mixed ages. The samples were assessed for mortality 6 days after infestation.

Diabrotica balteata [2] = experiment: Diabrotica balteata (corn rootworm), sprayed maize sprouts; settings: 96 h, application rate of 200 ppm, 4 days after infestation, L2 larvae
Experimental: Diabrotica balteata, (Corn Rootworm)
Maize sprouts, placed on an agar layer in 24-well microtiter plates were treated with aqueous test solutions prepared from 10′000 ppm DMSO stock solutions by spraying. After drying, the plates were infested with L2 larvae (6 to 10 per well). The samples were assessed for mortality 4 days after infestation.

NS(=O)(=O)CS(=O)(=O)c1ccc(C2=NOC(c3cc(Cl)cc(Cl)c3)(C(F)(F)F)C2)cc1Br (stereo not shown) [Compound A4, [2-bromo-4-[5-(3,5-dichlorophenyl)-5-(trifluoromethyl)-4H-isoxazol-3-yl]phenyl]sulfonylmethanesulfonamide]
≥ 80%: pest or weed control at 200 ppm (Spodoptera littoralis) | pest or weed control at 200 ppm (Heliothis virescens) | pest or weed control at 200 ppm (Plutella xylostella) | pest or weed control at 200 ppm (Diabrotica balteata [1]) | pest or weed control at 200 ppm (Tetranychus urticae)

O=S(=O)(CSc1ccc(C2=NO[C@@](c3cc(Cl)cc(Cl)c3)(C(F)(F)F)C2)cc1Br)NCC(F)(F)F [Compound B2, 1-[2-bromo-4-[(5S)-5-(3,5-dichlorophenyl)-5-(trifluoromethyl)-4H-isoxazol-3-yl]phenyl]sulfanyl-N-(2,2,2-trifluoroethyl)-methanesulfonamide]
≥ 80%: pest or weed control at 200 ppm (Spodoptera littoralis) | pest or weed control at 200 ppm (Heliothis virescens) | pest or weed control at 200 ppm (Plutella xylostella) | pest or weed control at 200 ppm (Diabrotica balteata [1]) | pest or weed control at 200 ppm (Thrips tabaci) | pest or weed control at 200 ppm (Tetranychus urticae)

CC(C)NS(=O)(=O)CSc1ccc(C2=NO[C@@](c3cc(Cl)cc(Cl)c3)(C(F)(F)F)C2)cc1Br [Compound B4, 1-[2-bromo-4-[(5S)-5-(3,5-dichlorophenyl)-5-(trifluoromethyl)-4H-isoxazol-3-yl]phenyl]sulfanyl-N-isopropyl-methanesulfonamide]
≥ 80%: pest or weed control at 200 ppm (Spodoptera littoralis) | pest or weed control at 200 ppm (Heliothis virescens) | pest or weed control at 200 ppm (Plutella xylostella) | pest or weed control at 200 ppm (Diabrotica balteata [1]) | mortality at 200 ppm (Myzus persicae) | pest or weed control at 200 ppm (Thrips tabaci) | pest or weed control at 200 ppm (Tetranychus urticae)

O=S(=O)(CS(=O)(=O)c1ccc(C2=NOC(c3cc(Cl)cc(Cl)c3)(C(F)(F)F)C2)cc1Br)NC1CC1 (stereo not shown) [Compound B6, 1-[2-bromo-4-[5-(3,5-dichlorophenyl)-5-(trifluoromethyl)-4H-isoxazol-3-yl]phenyl]sulfonyl-N-cyclopropyl-methanesulfonamide]
≥ 80%: pest or weed control at 200 ppm (Spodoptera littoralis) | pest or weed control at 200 ppm (Heliothis virescens) | pest or weed control at 200 ppm (Plutella xylostella) | pest or weed control at 200 ppm (Diabrotica balteata [1]) | pest or weed control at 200 ppm (Thrips tabaci) | pest or weed control at 200 ppm (Tetranychus urticae)

CCNS(=O)(=O)CSc1ccc(C2=CSC(c3cc(Cl)cc(Cl)c3)(C(F)(F)F)C2)cc1Br (stereo not shown) [Compound D2, 1-[2-bromo-4-[2-(3,5-dichlorophenyl)-2-(trifluoromethyl)-3H-thiophen-4-yl]phenyl]sulfanyl-N-ethyl-methanesulfonamide]
≥ 80%: pest or weed control at 200 ppm (Spodoptera littoralis) | pest or weed control at 200 ppm (Heliothis virescens) | pest or weed control at 200 ppm (Plutella xylostella) | mortality at 200 ppm (Diabrotica balteata [2])

CCN(CC)S(=O)(=O)CSc1ccc(C2=NOC(c3cc(Cl)cc(Cl)c3)(C(F)(F)F)C2)cc1Br (stereo not shown) [Compound A2, 1-[2-bromo-4-[5-(3,5-dichlorophenyl)-5-(trifluoromethyl)-4H-isoxazol-3-yl]phenyl]sulfanyl-N,N-diethyl-methanesulfonamide]
≥ 80%: pest or weed control at 200 ppm (Spodoptera littoralis) | pest or weed control at 200 ppm (Heliothis virescens) | pest or weed control at 200 ppm (Plutella xylostella) | pest or weed control at 200 ppm (Diabrotica balteata [1]) | pest or weed control at 200 ppm (Thrips tabaci) | pest or weed control at 200 ppm (Tetranychus urticae)

NS(=O)(=O)CSc1ccc(C2=NOC(c3cc(Cl)cc(Cl)c3)(C(F)(F)F)C2)cc1Br (stereo not shown) [Compound A1, [2-bromo-4-[5-(3,5-dichlorophenyl)-5-(trifluoromethyl)-4H-isoxazol-3-yl]phenyl]sulfanylmethanesulfonamide]
≥ 80%: pest or weed control at 200 ppm (Spodoptera littoralis) | pest or weed control at 200 ppm (Heliothis virescens) | pest or weed control at 200 ppm (Plutella xylostella) | pest or weed control at 200 ppm (Diabrotica balteata [1]) | pest or weed control at 200 ppm (Thrips tabaci) | pest or weed control at 200 ppm (Tetranychus urticae)

C#CCNS(=O)(=O)CSc1ccc(C2=NO[C@@](c3cc(Cl)cc(Cl)c3)(C(F)(F)F)C2)cc1Br [Compound B5, 1-[2-bromo-4-[(5S)-5-(3,5-dichlorophenyl)-5-(trifluoromethyl)-4H-isoxazol-3-yl]phenyl]sulfanyl-N-propargyl-methanesulfonamide]
≥ 80%: pest or weed control at 200 ppm (Spodoptera littoralis) | pest or weed control at 200 ppm (Heliothis virescens) | pest or weed control at 200 ppm (Plutella xylostella) | pest or weed control at 200 ppm (Diabrotica balteata [1]) | pest or weed control at 200 ppm (Thrips tabaci) | pest or weed control at 200 ppm (Tetranychus urticae)

O=S(=O)(CSc1ccc(C2=NO[C@@](c3cc(Cl)cc(Cl)c3)(C(F)(F)F)C2)cc1Br)NC1CC1 [Compound B3, 1-[2-bromo-4-[(5S)-5-(3,5-dichlorophenyl)-5-(trifluoromethyl)-4H-isoxazol-3-yl]phenyl]sulfanyl-N-cyclopropyl-methanesulfonamide]
≥ 80%: pest or weed control at 200 ppm (Spodoptera littoralis) | pest or weed control at 200 ppm (Heliothis virescens) | pest or weed control at 200 ppm (Plutella xylostella) | pest or weed control at 200 ppm (Diabrotica balteata [1]) | pest or weed control at 200 ppm (Thrips tabaci) | pest or weed control at 200 ppm (Tetranychus urticae)

CCNS(=O)(=O)CSc1ccc(C2=NOC(c3cc(Cl)cc(Cl)c3)(C(F)(F)F)C2)cc1Br (stereo not shown) [Compound A3, 1-[2-bromo-4-[5-(3,5-dichlorophenyl)-5-(trifluoromethyl)-4H-isoxazol-3-yl]phenyl]sulfanyl-N-ethyl-methanesulfonamide]
≥ 80%: pest or weed control at 200 ppm (Spodoptera littoralis) | pest or weed control at 200 ppm (Heliothis virescens) | pest or weed control at 200 ppm (Plutella xylostella) | pest or weed control at 200 ppm (Diabrotica balteata [1]) | mortality at 200 ppm (Myzus persicae) | pest or weed control at 200 ppm (Thrips tabaci) | pest or weed control at 200 ppm (Tetranychus urticae)

CCN(CC)S(=O)(=O)CSc1ccc(C2=CSC(c3cc(Cl)cc(Cl)c3)(C(F)(F)F)C2)cc1Br (stereo not shown) [Compound D1, 1-[2-bromo-4-[2-(3,5-dichlorophenyl)-2-(trifluoromethyl)-3H-thiophen-4-yl]phenyl]sulfanyl-N,N-diethyl-methanesulfonamide]
≥ 80%: pest or weed control at 200 ppm (Tetranychus urticae)

CCNS(=O)(=O)CSc1ccc(C2=NO[C@@](c3cc(Cl)cc(Cl)c3)(C(F)(F)F)C2)cc1Br [Compound B1, 1-[2-bromo-4-[(5S)-5-(3,5-dichlorophenyl)-5-(trifluoromethyl)-4H-isoxazol-3-yl]phenyl]sulfanyl-N-ethyl-methanesulfonamide]
≥ 80%: pest or weed control at 200 ppm (Spodoptera littoralis) | pest or weed control at 200 ppm (Heliothis virescens) | pest or weed control at 200 ppm (Plutella xylostella) | pest or weed control at 200 ppm (Diabrotica balteata [1]) | mortality at 200 ppm (Myzus persicae) | pest or weed control at 200 ppm (Thrips tabaci) | pest or weed control at 200 ppm (Tetranychus urticae)
